“And” between values parts separate entries of the source, which are not always exact repeats. Identical values can stand only once. “Also recorded” adds a separate entry of the source. Counter-ions that a name gives are not always drawn. Like-named read-outs stand apart in the source and are kept apart here.
Columns and labels:
LMH cells [1] = assay: Fluorescence-based in vitro drug screening assay; type: cell-based, chicken; conditions: for Porphyrogenicity / PP accumulation (authors' conclusion in words): with and without DFO; for Fluorescence reading / Fluorescence readings compared with the […] AIA control: 18–24 h; for Fluorescence reading: ex 410/em 625 nm; for Fluorescence readings compared with the […] AIA control: in the presence of DFO, 0–1 mM
[2] = ATPLite cytotoxicity assay in LMH cells; conditions: chicken, CC50, LMH cells, 18–24 h, presence of 250 μM DFO
[3] = cited from earlier work; for Maximal plasma concentration: ref 39 (Nagelschmitz et al.), listed as aspirin
LMH cells [4] = assay: ATPLite cytotoxicity assay in LMH cells; conditions: 1 mM compound in the presence of DFO
human liver organoids = assay: Fluorescence-based in vitro drug screening assay in human liver organoids; type: cell-based; conditions: approximately 100 human liver organoids, 0.5 mM compound + DFO, 18–24 h
HepG2 cells = assay: Fluorescence-based in vitro drug screening assay; type: cell-based, human; conditions: 1 mM compound + DFO, 18–24 h
HepG2 spheroids = assay: Fluorescence-based in vitro drug screening assay in HepG2 spheroids; type: cell-based, human; conditions: for Fluorescence reading compared with background: HepG2 organoids/spheroids, 0.5 mM compound with and without DFO
[5] = tested on: hydroxymethylbilane synthase; conditions: rat livers; cited from earlier work
[6] = tested on: hydroxymethylbilane synthase; conditions: human erythrocytes; cited from earlier work
[7] = humans, typically used oral doses
[8] = LMH cells, […] compound + 250 μM DFO
[9] = 1 mM compound in the presence of DFO
[10] = LMH cells, 1 mM compound + 250 μM DFO

Structure (SMILES): CCCC(CCC)C(=O)O [sodium valproate]
- Porphyrogenicity / PP accumulation (authors' conclusion in words) (LMH cells [1]; LMH cells): porphyrogenic

Structure (SMILES): C[C@](N)(Cc1ccc(O)c(O)c1)C(=O)O [alpha‐methyldopa]
- CC50 [2]: 164 µM
- Porphyrogenicity / PP accumulation (authors' conclusion in words) (LMH cells [1]; LMH cells): did not lead to an appreciable accumulation of PP

Structure (SMILES): CCCC(CCC)C(=O)O [valproic acid]
- Maximal serum concentration ([3]; humans, typically used oral doses (norgestrel, valproic acid)): ~8.81 mM
- Maximal serum concentration [3, 7]: approximately 1271 mg/L

Structure (SMILES): C#CC1(O)CC[C@H]2[C@@H]3CCC4=CC(=O)CC[C@@H]4[C@H]3CC[C@@]21CC (mixture of isomers) [norgestrel, D (‐) norgestrel]
- Fluorescence reading (LMH cells [1]; [8]): 6890 ± 106 RFU
- Fluorescence readings compared with the […] AIA control (LMH cells [1]; LMH cells): above the 0.314‐mM AIA control
- Porphyrogenicity / PP accumulation (authors' conclusion in words) (LMH cells [1]; LMH cells): porphyrogenic; also recorded: notable accumulation of PP
- Maximal serum concentration [3, 7]: approximately 14.1 ng/ml

Structure (SMILES): CCN(CCO)CCCC(C)Nc1ccnc2cc(Cl)ccc12 (stereo not drawn) [hydroxychloroquine, hydroxychloroquine sulfate]
- CC50 [2]: 381 µM
- Porphyrogenicity / PP accumulation (authors' conclusion in words) (LMH cells [1]; LMH cells): does not upregulate hepatic ALAS‐1

Structure (SMILES): CC(=O)Nc1ccc(O)cc1 [acetaminophen]
- Porphyrogenicity / PP accumulation (authors' conclusion in words) (LMH cells [1]; LMH cells): not porphyrogenic
- Maximum plasma concentration ([3]; oral 1000-mg tablet, ref 40 (Hong et al.)): approximately 8.79 mg/L and ~0.058 mM

Structure (SMILES): CCCCC(=O)N(Cc1ccc(-c2ccccc2-c2nnn[nH]2)cc1)[C@H](C(=O)O)C(C)C [valsartan]
- Porphyrogenicity / PP accumulation (authors' conclusion in words) (LMH cells [1]; LMH cells): did not show evidence of porphyrogenicity

Structure (SMILES): CC(=O)Oc1ccccc1C(=O)O [acetylsalicylic acid]
- Porphyrogenicity / PP accumulation (authors' conclusion in words) (LMH cells [1]; LMH cells): not porphyrogenic
- Maximal plasma concentration ([3]; intravenous 500-mg dose): 54.25 mg/L and 0.30 mM
- Maximal plasma concentration ([3]; oral 500-mg dose): 4.84 mg/L and 0.027 mM

Structure (SMILES): O=C1NC(=O)C(c2ccccc2)(c2ccccc2)N1 [phenytoin sodium]
- Maximal serum concentration ([3]; humans, oral 300-mg dose, ref 44 (Suthisisang et al.)): approximately 1.98 µg/ml and ~7.22 µM

Structure (SMILES): NCC(=O)CCC(=O)O [ALA, 5‐aminolevulinic acid]
- Cytotoxic effect (LMH cells [4]): mild cytotoxic effects
- Fluorescence reading (human liver organoids): above 1600 RFU
- Fluorescence reading (HepG2 cells): above 5000 RFU
- Fold higher fluorescence readings in LMH cells than in HepG2 cells (LMH cells [1]; [9]): approximately 2.1 fold
- Fold higher fluorescence readings in LMH cells than in HepG2 organoids (LMH cells [1]; [9]): ~1.9 fold
- Fold higher fluorescence readings in LMH cells than in human liver organoids (LMH cells [1]; [9]): ~7 fold
- Fluorescence reading (LMH cells [1]; [10]): above 10 000 RFU
- Fluorescence reading (HepG2 spheroids; approximately 200 HepG2 spheroids, 0.5 mM compound + DFO, 18–24 h): above 6000 RFU

Structure (SMILES): O=C1NC(=O)C(c2ccccc2)(c2ccccc2)N1 [phenytoin]
- Fluorescence reading (LMH cells [1]; [8]): 5913 ± 190 RFU
- Fluorescence readings compared with the […] AIA control (LMH cells [1]; LMH cells): above the 0.314‐mM AIA control
- Porphyrogenicity / PP accumulation (authors' conclusion in words) (LMH cells [1]; LMH cells): porphyrogenic
- Fluorescence reading compared with background (HepG2 spheroids): failed to produce fluorescence readings above background

Structure (SMILES): CCC1(c2ccccc2)C(=O)NC(=O)NC1=O [phenobarbital]
- Fluorescence reading (LMH cells [1]; [10]): 7513 ± 48 RFU
- Fluorescence readings compared with the AIA positive control (LMH cells [1]; LMH cells, concentrations around 0.024 mM): close to the AIA positive control
- Fluorescence readings compared with the […] AIA control (LMH cells [1]; LMH cells): above the 0.314‐mM AIA control
- Maximal serum concentration ([3]; 2.9-mg/kg oral dose, ref 43 (Nelson et al.)): approximately 5.5 mg/L; also recorded: around 0.024 mM
- Fluorescence reading compared with background (HepG2 spheroids): failed to produce fluorescence readings above background

Structure (SMILES): C[C@]12CC[C@@H]3c4ccc(O)cc4CC[C@H]3[C@@H]1CC[C@@H]2O [β‐estradiol]
- Porphyrogenicity / PP accumulation (authors' conclusion in words) (LMH cells [1]; LMH cells): notable accumulation of PP

Structure (SMILES): Cc1noc(NS(=O)(=O)c2ccc(N)cc2)c1C [sulfisoxazole]
- Effect on the activity of hydroxymethylbilane synthase [5]: did not affect the activity
- Porphyrogenicity / PP accumulation (authors' conclusion in words) (LMH cells [1]; LMH cells): neither of these drugs led to excess PP accumulation
- Effect on the activity of hydroxymethylbilane synthase [6]: did not affect the activity
